Experimental data as given in patent US6894054B2, “Heterocyclic inhibitors of glycine transporter 2” (Telik, Inc., priority 2001, dated 2005).

Biological target: T1, rat glycine transporter subtype 2 (GlyT2) (Rattus norvegicus, UniProt P58295)
T1 construct: expressed in transfected cells; host or cells: CHO cells
T1 sequence (P58295 1-799): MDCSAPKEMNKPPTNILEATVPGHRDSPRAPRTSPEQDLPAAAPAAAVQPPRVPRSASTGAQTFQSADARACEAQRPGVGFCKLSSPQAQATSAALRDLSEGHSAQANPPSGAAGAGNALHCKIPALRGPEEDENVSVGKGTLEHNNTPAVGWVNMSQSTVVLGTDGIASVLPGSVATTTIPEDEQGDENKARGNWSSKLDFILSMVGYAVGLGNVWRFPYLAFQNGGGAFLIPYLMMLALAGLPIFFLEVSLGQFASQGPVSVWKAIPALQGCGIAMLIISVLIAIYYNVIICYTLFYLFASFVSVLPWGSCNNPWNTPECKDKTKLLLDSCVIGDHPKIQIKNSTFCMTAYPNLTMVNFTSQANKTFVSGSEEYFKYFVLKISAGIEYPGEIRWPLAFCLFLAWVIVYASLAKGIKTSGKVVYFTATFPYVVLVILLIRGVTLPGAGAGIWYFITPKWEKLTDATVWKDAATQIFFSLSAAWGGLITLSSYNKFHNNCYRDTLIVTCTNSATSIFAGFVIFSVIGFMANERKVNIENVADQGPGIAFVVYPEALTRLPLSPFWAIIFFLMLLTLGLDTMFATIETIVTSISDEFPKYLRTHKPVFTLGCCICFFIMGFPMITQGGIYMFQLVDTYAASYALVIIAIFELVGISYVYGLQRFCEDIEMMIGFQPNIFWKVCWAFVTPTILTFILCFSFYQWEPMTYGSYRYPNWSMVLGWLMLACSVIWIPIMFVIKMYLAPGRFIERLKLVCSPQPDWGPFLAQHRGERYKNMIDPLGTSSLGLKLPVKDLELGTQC
Test: Inhibition of glycine transporter 2: 3H-glycine uptake in CHO cells expressing rat GlyT2
Format: cell-based
Conditions: GlyT2 inhibitory concentration, 15 min preincubation, 10 nM 3H-glycine, 7 min uptake, read-out: GlyT2 Inhib.
Description: CHO cells expressing rat glycine transporter subtype 2 (GlyT2) were grown in high glucose Dulbecco's modified Eagle's medium supplemented with 10% bovine fetal serum at 37° C. in a 5% CO2 atmosphere. Subconfluent cells growing in 24- or 96-well plates were washed with PBS, and were preincubated at 37° C. for 15 min with uptake buffer (100 mM NaCl, 2 mM KCl, 1 mM CaCl2, 1 mM MgCl2, 10 mM HEPES, pH 7.5) containing sample compounds. Uptake was initiated by adding prewarmed ^3H-glycine yielding a 10 nM final glycine concentration, and was terminated after 7 min by aspiration of the buffer. Cells were washed 3 times with ice-cold PBS, and radioactivity was determined by scintillation counting using TopCount. GlyT2 inhibitory concentrations for several compounds of Formula I are given below.

IC50	Compound
1100 nM	c1ccc(CSc2nnc(CCCCc3nnc(SCc4ccccc4)o3)o2)cc1 [Compound 21, 2,2′-(1,4-butanediyl)bis[5-(benzylthio)-1,3,4-oxadiazole]]
900 nM	Clc1cccc(Cl)c1CSc1nnc(-c2cnccn2)s1 [Compound 12, 5-[(2,6-dichlorophenyl)methylthio]-2-(pyrazin-2-yl)-1,3,4-thiadiazole]
6600 nM	CCn1nc(C)cc1-c1nnc(SCc2ccccc2)n1-c1ccccc1 [Compound 7, 3-benzylthio-5-(2-ethyl-5-methyl-3-diazolyl)-4-phenyl-1,2,4-triazole]
